Test results: US7999011B2, “Method for cardioprotection and neuroprotection by intravenous administration of halogenated volatile anesthetics” (Baxter International Inc., priority 2002, dated 2011)
Entries after “also recorded” stand apart in the source; their conditions may differ.

Columns and labels:
[1] = tested on: myocardial ischemia-reperfusion injury; assay: Myocardial infarct size following ischemia and reperfusion (30 min LAD occlusion, 3 h reperfusion); type: in vivo, rabbit; conditions: for infarct size plotted as a function of area at risk, versus control regression line: FIGS. 4A, 4B, 5A, 5B; for cardioprotection (protection against myocardial ischemia-reperfusion injury): i.v. emulsion prior to coronary artery occlusion; for IF/AAR: infarct size as percentage of area at risk, i.v. emulsion 10 ml/h 30 min, stopped 30 min before occlusion; for IF WT: infarct weight
Description: These experiments were designed to characterize the effects of different HVAs (enflurane, isoflurane, sevoflurane, and desflurane) administered intravenously in an emulsion on myocardial infarct size following ischemia and reperfusion in rabbits.
Male New Zealand white rabbits weighing between 2.5 and 3.0 kg were anesthetized with intravenous sodium pentobarbital (30 mg/kg). Additional doses of pentobarbital were titrated as required to assure that pedal and palpebral reflexes were absent throughout the experiment. A tracheotomy was performed through a ventral midline incision, and the trachea was cannulated. The rabbits were ventilated with positive pressure using an air-oxygen mixture (FiO2=0.33). Arterial blood gas tensions and acid-base status were maintained within a normal physiological range (pH 7.35-7.45, PaCO2 25-40 mmHg, and PaO2 90-150 mmHg) by adjusting the respiratory rate or tidal volume. Body temperature was maintained with a heating blanket. Heparin-filled catheters were inserted into the right carotid artery and the left jugular vein for measurement of arterial blood pressure and fluid or drug administration, respectively. Maintenance fluids consisted of 0.9% saline (15 ml/kg/h) that were continued for the duration of the experiment.
A left thoracotomy was performed at the fourth intercostal space, and the heart was suspended in a pericardial cradle. A prominent branch of the left anterior descending coronary artery (LAD) was selected, and a silk ligature was placed around this artery approximately halfway between the base and apex for the production of coronary artery occlusion and reperfusion in myocardial infarct size experiments. Each rabbit was anticoagulated with 500 U of heparin immediately before LAD occlusion. Coronary artery occlusion was verified by the presence of epicardial cyanosis and regional dyskinesia in the ischemic zone, and reperfusion was confirmed by observing an epicardial hyperemic response. Hemodynamics were continuously recorded on a polygraph throughout experimentation. After the surgical preparation, 30 min of stabilization were allowed.
(§1) The experimental design for the experiments is illustrated in FIG. 1. Rabbits were randomly assigned to one of six experimental groups: a control group (0.9% saline infusion), a vehicle group (drug lipid vehicle), or one of four anesthetic groups (emulsified desflurane, isoflurane, enflurane, or sevoflurane). The vials of anesthetics were stored at 4° C. as prepared in Example 1. After opening, the vial was left in a water bath at 37° C. for 2 h. Anesthetics were directly poured into the syringe without using negative pressure suction.
Baseline measurements of systemic hemodynamics, arterial blood gas tensions, and blood concentrations of anesthetic agent were performed 30 min after instrumentation was completed. Rabbits received 0.9% saline, drug lipid vehicle (10 ml/h), or intravenous volatile anesthetic (10 ml/h) for 30 min. Infusions were discontinued 30 min prior to coronary occlusion (memory period). Blood concentrations of anesthetic agents were performed at baseline, at the end of anesthetic infusion, and at the end of the memory period just before coronary occlusion). HVA concentrations in blood were determined by gas chromatographic (GC) analysis. All rabbits underwent a 30 min LAD occlusion followed by 3 h reperfusion.
At the end of each experiment, the LAD was reoccluded and 3 ml of Patent blue dye was injected intravenously. The left ventricular area at risk for infarction was separated from surrounding normal areas (stained blue), and the two regions were incubated at 37° C. for 20 to 30 min in 1% 2,3,5-triphenyltetrazolium chloride in 0.1 M phosphate buffer adjusted to pH 7.4. After overnight storage in 10% formaldehyde, infarcted and noninfarcted myocardium within the area at risk were carefully separated and weighed. Infarct size was expressed as a percentage of the area at risk. […]

[2] = Literature MAC values in rabbits and 1 MAC-equivalent blood concentration; type: in vivo; conditions: 37° C., rabbit; x=λn
Description: “Minimum alveolar concentration (MAC)”, as is known in the art, is the alveolar concentration of an anesthetic, administered by inhalation at a pressure of 1 atmosphere, that prevents movement in 50% of patients in response to a painful stimuli. The MAC is age-dependent; it may be affected by a patient's medical condition; and it may also be affected by other pharmaceutical agents that are administered to the patient. In the context of intravenous administration of HVAs, the term “MAC” or “MAC-equivalent” is intended to mean an intravenous dose which produces the same blood plasma concentration of an anesthetic agent as that attained by inhalational administration of a gaseous concentration of anesthetic which prevents such movement in 50% of patients.
Blood concentrations as measured by GC were converted to their MAC-equivalent values by calculations described below. Initially “n”, or the number of moles of HVA in 1 L of alveolar gas during exposure to 1.0 MAC of the HVA was calculated.
The number of moles of the HVA in 1 L at 37° C. at 1 MAC in rabbits was then used to determine the concentration of the HVA present in blood by using known blood/gas partition values (also known as λ). […] The value for “x” (or the equivalent blood concentration of the HVA at 1 MAC at 37° C. in rabbit) is then determined by the equation: x=λn

[3] = Warming of emulsion at 37° C. for 2 h before infusion; type: physicochemical; conditions: syringe and extension tubing
Description: as §1
All anesthetics were used under equivalent experimental conditions, as indicated previously (i.e., warmed for two hours at body temperature before infusion).
Despite efforts to remove the bubbles, it was impossible to eliminate all bubbles, and some were likely infused during the infusion period. Desflurane results should therefore be interpreted with the constraints of this experimental limitation.

[4] = literature values determined in rabbits; cited from earlier work

Structure (SMILES)	infarct size plotted as a function of area at risk, versus control regression line [1]	cardioprotection (protection against myocardial ischemia-reperfusion injury) [1]	IF/AAR [1] [%]	IF WT [1] [g]	1 MAC-Equivalent Blood Concentration at 1 MAC ("x") [2] [mM]	behaviour of emulsion on warming to body temperature [3]	Average MAC [4] [% v/v]	cardioprotection (protection against myocardial ischemia-reperfusion injury) ([1]; listed as Enflurane)	cardioprotection (protection against myocardial ischemia-reperfusion injury) ([1]; listed as enflurane)
FC(F)OC(F)C(F)(F)F (centres unmarked) [DES, desflurane]	infarct size comparable to controls	unable to confer cardioprotection; also recorded: did not confer cardioprotection	38.5 ± 6.7	0.50 ± 0.15	1.38	bubbles accumulated in the syringe and extension tubing	8.9		
FC(F)OC(Cl)C(F)(F)F (centres unmarked) [ISO, isoflurane]	infarcts were smaller than in the control group	provided protection against myocardial ischemia-reperfusion injury; also recorded: adequate protection against myocardial ischemia-reperfusion injury; also recorded: significant reduction in the myocardial infarct size	18.1 ± 2.6	0.18 ± 0.03	1.06		2.05		
FC(F)OC(F)(F)C(F)Cl (centres unmarked) [ENF, enflurane]	infarcts were smaller than in the control group		20.0 ± 2.8	0.21 ± 0.02	1.995		2.86	provided protection against myocardial ischemia-reperfusion injury	adequate protection against myocardial ischemia-reperfusion injury; also recorded: significant reduction in the myocardial infarct size
FCOC(C(F)(F)F)C(F)(F)F [SEVO, sevoflurane]	infarcts were smaller than in the control group	provided protection against myocardial ischemia-reperfusion injury; also recorded: adequate protection against myocardial ischemia-reperfusion injury; also recorded: significant reduction in the myocardial infarct size	20.5 ± 2.3	0.19 ± 0.04	0.94		3.7		
